According to US20240139211A1, “METHODS AND COMPOSITIONS FOR TREATING AMYOTROPHIC LATERAL SCLEROSIS” (Amylyx Pharmaceuticals, Inc., priority 2022, published 2024):
Where two headings read alike, the source gives them in different places.

Columns and labels:
OAT3 = molecular target: T1, OAT3 (Homo sapiens, UniProt Q8TCC7); assay: Substrate of OAT3, uptake in HEK293 cells
T1 sequence (Q8TCC7 1-542): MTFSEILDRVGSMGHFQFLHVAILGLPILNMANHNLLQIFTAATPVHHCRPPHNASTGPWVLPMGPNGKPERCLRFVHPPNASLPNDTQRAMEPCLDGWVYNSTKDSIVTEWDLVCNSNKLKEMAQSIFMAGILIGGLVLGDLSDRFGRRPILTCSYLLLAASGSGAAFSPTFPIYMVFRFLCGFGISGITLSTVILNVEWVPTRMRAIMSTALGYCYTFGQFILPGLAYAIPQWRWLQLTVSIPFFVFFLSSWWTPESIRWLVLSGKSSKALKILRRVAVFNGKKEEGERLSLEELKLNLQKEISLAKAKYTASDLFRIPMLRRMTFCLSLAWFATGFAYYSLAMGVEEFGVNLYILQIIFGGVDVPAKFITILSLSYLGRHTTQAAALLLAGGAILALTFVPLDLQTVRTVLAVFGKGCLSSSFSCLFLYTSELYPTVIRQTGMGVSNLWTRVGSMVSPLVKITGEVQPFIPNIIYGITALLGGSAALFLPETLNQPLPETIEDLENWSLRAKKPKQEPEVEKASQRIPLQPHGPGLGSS
Text: (§1) Vector-transfected HEK cells were used as a control.

OATP1B3 [1] = molecular target: T2, OATP1B3 (Homo sapiens, UniProt Q9NPD5); assay: Substrate of OATP1B3, uptake in HEK293 cells
T2 sequence (Q9NPD5 whole entry): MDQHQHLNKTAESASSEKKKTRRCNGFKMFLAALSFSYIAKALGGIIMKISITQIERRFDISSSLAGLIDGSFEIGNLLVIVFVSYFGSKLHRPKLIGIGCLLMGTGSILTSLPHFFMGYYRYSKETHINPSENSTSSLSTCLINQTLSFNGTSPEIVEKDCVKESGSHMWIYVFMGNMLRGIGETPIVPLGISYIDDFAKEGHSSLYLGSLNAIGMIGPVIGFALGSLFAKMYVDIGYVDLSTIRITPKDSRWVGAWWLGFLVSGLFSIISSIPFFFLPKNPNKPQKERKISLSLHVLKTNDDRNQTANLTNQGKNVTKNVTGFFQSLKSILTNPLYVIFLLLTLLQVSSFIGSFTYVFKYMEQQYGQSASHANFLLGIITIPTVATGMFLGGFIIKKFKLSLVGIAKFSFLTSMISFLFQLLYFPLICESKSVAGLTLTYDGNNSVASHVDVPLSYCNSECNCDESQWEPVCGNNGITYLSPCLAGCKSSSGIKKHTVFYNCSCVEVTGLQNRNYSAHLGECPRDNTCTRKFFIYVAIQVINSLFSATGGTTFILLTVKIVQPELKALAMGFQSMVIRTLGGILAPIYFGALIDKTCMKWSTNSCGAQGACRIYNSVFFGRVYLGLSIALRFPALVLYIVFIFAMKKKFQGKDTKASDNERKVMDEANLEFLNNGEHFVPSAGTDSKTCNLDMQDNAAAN
Text: as §1

human hepatocytes [2] = assay: Cytotoxicity of six test articles in hepatocyte cultures (MTS); conditions: for Concentrations at which not hepatotoxic: Donor 1, 72±2 hours
OATP1B3 [3] = molecular target: T2, OATP1B3; assay: Inhibitor of OATP1B3, probe substrate uptake; conditions: for potency estimated from few doses: read-out: Estimated IC50, OATP1B3; for Inhibition of OATP1B3 / Inhibitor of OATP1B3: two concentrations per test article
CYP1A2 mRNA = assay: CYP1A2 gene expression induction in hepatocyte cultures; conditions: for Inducer of CYP1A2 (conclusion): gene expression and enzyme activity, three donors
BSEP [4] = molecular target: T3, BSEP (Homo sapiens, UniProt O95342); assay: Inhibitor of BSEP; conditions: for Inhibition of BSEP / Inhibitor of BSEP: two concentrations per test article
T3 sequence (O95342 whole entry): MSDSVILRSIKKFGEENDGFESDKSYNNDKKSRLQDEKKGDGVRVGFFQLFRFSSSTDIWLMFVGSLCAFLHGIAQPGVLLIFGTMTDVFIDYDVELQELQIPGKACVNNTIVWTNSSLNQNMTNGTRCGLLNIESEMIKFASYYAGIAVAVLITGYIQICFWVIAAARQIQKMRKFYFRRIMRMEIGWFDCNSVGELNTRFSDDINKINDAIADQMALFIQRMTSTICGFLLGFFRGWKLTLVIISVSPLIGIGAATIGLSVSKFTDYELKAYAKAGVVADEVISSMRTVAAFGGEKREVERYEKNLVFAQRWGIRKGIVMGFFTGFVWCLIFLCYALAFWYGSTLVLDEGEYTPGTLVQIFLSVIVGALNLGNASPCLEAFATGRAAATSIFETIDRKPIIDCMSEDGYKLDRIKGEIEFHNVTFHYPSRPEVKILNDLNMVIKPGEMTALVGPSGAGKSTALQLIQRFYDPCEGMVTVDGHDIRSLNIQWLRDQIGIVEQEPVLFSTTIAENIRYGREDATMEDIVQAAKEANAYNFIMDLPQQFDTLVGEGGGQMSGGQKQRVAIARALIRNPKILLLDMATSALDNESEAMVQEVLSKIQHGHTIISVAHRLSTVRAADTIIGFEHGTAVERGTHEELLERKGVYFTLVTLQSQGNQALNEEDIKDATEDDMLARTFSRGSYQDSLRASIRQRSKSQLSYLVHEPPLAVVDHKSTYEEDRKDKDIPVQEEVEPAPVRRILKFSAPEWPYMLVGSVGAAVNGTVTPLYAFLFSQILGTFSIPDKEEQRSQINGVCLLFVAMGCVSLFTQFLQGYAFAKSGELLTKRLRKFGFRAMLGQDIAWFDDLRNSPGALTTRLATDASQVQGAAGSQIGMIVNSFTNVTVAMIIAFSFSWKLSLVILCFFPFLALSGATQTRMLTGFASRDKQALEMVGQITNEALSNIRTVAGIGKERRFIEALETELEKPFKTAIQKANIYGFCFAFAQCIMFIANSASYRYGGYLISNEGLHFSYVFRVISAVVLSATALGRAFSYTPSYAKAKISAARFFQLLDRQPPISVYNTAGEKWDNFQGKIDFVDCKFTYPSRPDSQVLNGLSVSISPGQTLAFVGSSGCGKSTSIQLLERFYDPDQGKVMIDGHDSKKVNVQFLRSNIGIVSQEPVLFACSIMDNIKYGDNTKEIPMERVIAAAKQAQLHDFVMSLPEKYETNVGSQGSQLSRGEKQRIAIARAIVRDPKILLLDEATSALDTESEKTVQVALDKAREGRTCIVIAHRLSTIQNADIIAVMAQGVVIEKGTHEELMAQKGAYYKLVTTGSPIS

Caco-2 cells = conditions: for Permeability in Caco-2 cell assay: 1 and 10 μM (tauroursodeoxycholic acid: 10 μM)
OCT1 = molecular target: T4, OCT1 (Homo sapiens, UniProt O15245); assay: Substrate of OCT1, uptake in HEK293 cells
T4 sequence (O15245 1-554): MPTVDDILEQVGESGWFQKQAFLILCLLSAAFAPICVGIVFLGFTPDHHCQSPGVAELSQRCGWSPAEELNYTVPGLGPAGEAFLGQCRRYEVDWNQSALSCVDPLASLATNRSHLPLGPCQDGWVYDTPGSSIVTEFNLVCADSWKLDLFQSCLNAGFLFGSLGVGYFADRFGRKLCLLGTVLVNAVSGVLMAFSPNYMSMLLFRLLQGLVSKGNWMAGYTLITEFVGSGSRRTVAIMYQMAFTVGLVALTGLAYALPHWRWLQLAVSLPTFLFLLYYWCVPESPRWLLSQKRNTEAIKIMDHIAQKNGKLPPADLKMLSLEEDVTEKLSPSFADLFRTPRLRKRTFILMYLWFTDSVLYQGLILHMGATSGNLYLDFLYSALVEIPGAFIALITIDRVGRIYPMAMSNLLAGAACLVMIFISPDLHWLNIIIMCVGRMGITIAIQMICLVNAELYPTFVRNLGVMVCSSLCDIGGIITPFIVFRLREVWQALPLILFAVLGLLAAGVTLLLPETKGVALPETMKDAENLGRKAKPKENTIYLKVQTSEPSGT
Text: as §1

human hepatocytes [5] = assay: Stability of test articles in hepatocyte cultures; conditions: two concentrations
BSEP [6] = molecular target: T3, BSEP; assay: Substrate of BSEP; conditions: test article 1 and 10 μM
CYP2B6 mRNA = assay: CYP2B6 gene expression induction in hepatocyte cultures; conditions: for EC50: read-out: EC50, CYP2B6 gene expression
OAT1 = molecular target: T5, OAT1 (Homo sapiens, UniProt Q4U2R8); assay: Inhibitor of OAT1, probe substrate uptake; conditions: for Inhibition of OAT1 / Inhibitor of OAT1: two concentrations per test article; for potency estimated from few doses: read-out: Estimated IC50, OAT1
T5 sequence (Q4U2R8 1-563): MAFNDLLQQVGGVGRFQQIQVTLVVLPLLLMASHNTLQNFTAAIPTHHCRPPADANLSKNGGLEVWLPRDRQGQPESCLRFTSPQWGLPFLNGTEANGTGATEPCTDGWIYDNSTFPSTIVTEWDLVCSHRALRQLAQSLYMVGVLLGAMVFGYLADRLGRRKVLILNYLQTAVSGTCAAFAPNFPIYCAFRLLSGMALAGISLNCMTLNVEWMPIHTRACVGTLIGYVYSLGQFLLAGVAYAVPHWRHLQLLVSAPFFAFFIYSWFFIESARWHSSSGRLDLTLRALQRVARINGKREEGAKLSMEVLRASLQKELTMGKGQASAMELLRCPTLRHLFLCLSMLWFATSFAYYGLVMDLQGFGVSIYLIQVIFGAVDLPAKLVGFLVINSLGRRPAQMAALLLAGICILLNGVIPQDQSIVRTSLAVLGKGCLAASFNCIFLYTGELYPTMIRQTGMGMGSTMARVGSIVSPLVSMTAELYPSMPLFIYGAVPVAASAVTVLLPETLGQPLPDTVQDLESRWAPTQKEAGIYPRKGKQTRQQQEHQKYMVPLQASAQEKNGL

CYP3A4 mRNA = assay: CYP3A4 gene expression induction in hepatocyte cultures; conditions: for Inducer of CYP3A4 (conclusion): gene expression and enzyme activity, three donors
in vitro = conditions: human, Caco-2
[7] = estimated from two concentrations
[8] = 1 and 10 μM, transport buffer alone

## tauroursodeoxycholic acid [TUDCA]
OAT3; 1 and 10 μM
  Uptake by OAT3: ≥ 9.27 pmol/minute/mg protein
OAT3; test article 1 and 10 μM
  Substrate of OAT3: Yes
OATP1B3 [1]; 1 and 10 μM
  Uptake by OATP1B3: 5.90 pmol/minute/mg protein
OATP1B3 [1]; test article 1 and 10 μM
  Substrate of OATP1B3: Yes
Human hepatocytes [2]
  Concentrations at which not hepatotoxic: 550 µM
OATP1B3 [3]; 50 μM
  Uptake activity remaining, OATP1B3: roughly 18%
OATP1B3 [3]; [7]
  potency estimated from few doses: < 50 µM
OATP1B3 [3]; estimated from two doses
  potency estimated from few doses: < 50 µM
OATP1B3 [3]
  Inhibition of OATP1B3: inhibited
  Inhibitor of OATP1B3: Yes
CYP1A2 mRNA
  Inducer of CYP1A2 (conclusion): did not meet the classification requirements to be identified as an inducer
BSEP [4]; read-out: Estimated IC50, BSEP, estimated from two concentrations
  potency estimated from few doses: < 5 µM
BSEP [4]
  Inhibition of BSEP: inhibited
  Inhibitor of BSEP: Yes
Caco-2 cells; 1 μM
  Papp basolateral to apical: 8.17 ×10⁻⁶ cm/s
Caco-2 cells; 10 μM
  Papp apical to basolateral: 2.43 ×10⁻⁶ cm/s
  Papp basolateral to apical: 3.6 ×10⁻⁶ cm/s
Caco-2 cells
  Permeability in Caco-2 cell assay: moderate in both directions
OCT1; 1 and 10 μM
  Substrate of OCT1: not a substrate
OCT1; test article 1 and 10 μM
  Substrate of OCT1: No
Human hepatocytes [5]; 1 hour
  % of time zero remaining in hepatocyte cultures: ≤ 79.9%
Human hepatocytes [5]; 4 hours
  % of time zero remaining in hepatocyte cultures: ≤ 75.9%
Human hepatocytes [5]; 24 hours
  % of time zero remaining in hepatocyte cultures: ≤ 23.5%
BSEP [6]
  Substrate of BSEP: Yes
CYP2B6 mRNA; gene expression and enzyme activity, three donors
  Inducer of CYP2B6 (conclusion): did not meet the classification requirements to be identified as an inducer
OAT1
  Inhibition of OAT1: did not inhibit
  Inhibitor of OAT1: No
CYP3A4 mRNA
  Inducer of CYP3A4 (conclusion): did not meet the classification requirements to be identified as an inducer

## O=C(O)CCCc1ccccc1 [PB, sodium phenylbutyrate]
Human hepatocytes [2]
  Concentrations at which not hepatotoxic: ≤ 250 µM
OATP1B3 [3]
  Inhibition of OATP1B3: did not inhibit
  Inhibitor of OATP1B3: No
BSEP [4]
  Inhibition of BSEP: did not inhibit
  Inhibitor of BSEP: No
Caco-2 cells
  Permeability in Caco-2 cell assay: high permeability
Human hepatocytes [5]; 1 hour
  % of time zero remaining in hepatocyte cultures: ≤ 84.0%
Human hepatocytes [5]; 4 hours
  % of time zero remaining in hepatocyte cultures: ≤ 60.7%
Human hepatocytes [5]; 24 hours
  % of time zero remaining in hepatocyte cultures: 0%
BSEP [6]
  Substrate of BSEP: No
CYP2B6 mRNA; Donor 1
  Emax, CYP2B6 gene expression: 8.54 fold
  EC50: 19.1 µM
CYP2B6 mRNA; Donor 2
  Emax, CYP2B6 gene expression: 24.4 fold
  EC50: 108 µM
OAT1; 25 μM
  Uptake activity remaining, OAT1: 21.1%
OAT1; [7]
  potency estimated from few doses: < 25 µM
OAT1
  Inhibition of OAT1: inhibited
  Inhibitor of OAT1: Yes
In vitro
  Papp A→B: ≤ 28.9 ×10⁻⁶ cm/s
  Papp B→A: 254 ×10⁻⁶ cm/s

## ursodeoxycholic acid
OAT3; 1 and 10 μM
  Substrate of OAT3: not a substrate
OAT3; test article 1 and 10 μM
  Substrate of OAT3: No
OATP1B3 [1]; 1 and 10 μM
  Substrate of OATP1B3: not a substrate
OATP1B3 [1]; test article 1 and 10 μM
  Substrate of OATP1B3: No
Human hepatocytes [2]; Donor 1, 500 μM
  Effect on cell viability: affected cell viability
Human hepatocytes [2]
  Concentrations at which not hepatotoxic: ≤ 250 µM
OATP1B3 [3]; 50 μM
  Uptake activity remaining, OATP1B3: 545.1%
OATP1B3 [3]; 500 μM
  Uptake activity remaining, OATP1B3: no uptake activity remaining
OATP1B3 [3]; [7]
  potency estimated from few doses: < 50 µM
OATP1B3 [3]; estimated from two doses
  potency estimated from few doses: < 50 µM
OATP1B3 [3]
  Inhibition of OATP1B3: inhibited
  Inhibitor of OATP1B3: Yes
Caco-2 cells; 1 and 10 μM
  Apparent permeability in both directions: > 18 ×10⁻⁶ cm/s
Caco-2 cells
  Permeability in Caco-2 cell assay: high in both directions
Caco-2 cells; [8]
  Papp apical to basolateral: ≥ 18.9 ×10⁻⁶ cm/s
  Papp basolateral to apical: ≥ 22.8 ×10⁻⁶ cm/s
OCT1; 1 and 10 μM
  Substrate of OCT1: not a substrate
OCT1; test article 1 and 10 μM
  Substrate of OCT1: No
Human hepatocytes [5]; 1 hour
  % of time zero remaining in hepatocyte cultures: ≤ 93.1%
Human hepatocytes [5]; 4 hours
  % of time zero remaining in hepatocyte cultures: ≤ 61.0%
Human hepatocytes [5]; 24 hours
  % of time zero remaining in hepatocyte cultures: ≤ 2.35%
OAT1; [7]
  potency estimated from few doses: < 500 µM
OAT1; estimated from two doses
  potency estimated from few doses: < 500 µM
OAT1
  Inhibition of OAT1: inhibited
  Inhibitor of OAT1: Yes

## C[C@H](CCC(=O)NCC(=O)O)[C@H]1CC[C@H]2[C@@H]3[C@@H](O)C[C@@H]4C[C@H](O)CC[C@]4(C)[C@H]3CC[C@]12C [Glycoursodeoxycholic acid, glycoursodeoxycholic acid]
Human hepatocytes [2]
  Concentrations at which not hepatotoxic: ≤ 100 µM
OATP1B3 [3]; 100 μM
  Uptake activity remaining, OATP1B3: 10.6%
OATP1B3 [3]; [7]
  potency estimated from few doses: < 100 µM
OATP1B3 [3]
  Inhibition of OATP1B3: inhibited
  Inhibitor of OATP1B3: Yes
CYP1A2 mRNA; Donor 1
  Emax, CYP1A2 gene expression: 11.7 fold
CYP1A2 mRNA; Donor 2
  Maximum fold induction of CYP1A2 gene expression: 13.0 fold
CYP1A2 mRNA; Donor 3
  Maximum fold induction of CYP1A2 gene expression: 7.83 fold
CYP1A2 mRNA
  Inducer of CYP1A2 (conclusion): as an inducer
BSEP [4]; human
  potency estimated from few doses: < 10 µM
BSEP [4]
  Inhibition of BSEP: inhibited
  Inhibitor of BSEP: Yes
Caco-2 cells
  Permeability in Caco-2 cell assay: moderate permeability
Human hepatocytes [5]; 1 hour
  % of time zero remaining in hepatocyte cultures: ≤ 88.8%
Human hepatocytes [5]; 4 hours
  % of time zero remaining in hepatocyte cultures: ≤ 75.4%
Human hepatocytes [5]; 24 hours
  % of time zero remaining in hepatocyte cultures: ≤ 34.7%
BSEP [6]
  Substrate of BSEP: Yes
CYP2B6 mRNA; Donor 1
  Emax, CYP2B6 gene expression: 5.60 fold
CYP2B6 mRNA; Donor 2
  Emax, CYP2B6 gene expression: 4.53 fold
  Maximum fold induction of CYP2B6 gene expression: 4.80 fold
  EC50: 1.39 µM
CYP2B6 mRNA; Donor 3
  Emax, CYP2B6 gene expression: 5.78 fold
  Maximum fold induction of CYP2B6 gene expression: 5.68 fold
  EC50: 1.48 µM
OAT1
  Inhibition of OAT1: did not inhibit
  Inhibitor of OAT1: No
CYP3A4 mRNA; Donor 2
  Maximum fold induction of CYP3A4 gene expression: 3.40 fold
CYP3A4 mRNA; Donor 3
  Maximum fold induction of CYP3A4 gene expression: 3.30 fold
CYP3A4 mRNA
  Inducer of CYP3A4 (conclusion): did not meet the classification requirements to be identified as an inducer of CYP3A4
In vitro
  Papp A→B: ≥ 2.4 ×10⁻⁶ cm/s
  Papp B→A: ≥ 6.84 ×10⁻⁶ cm/s
  efflux ratio at 1 μM: 1.86
  efflux ratio at 10 μM: 2.85
  recovery: ≥ 75%
